Measurements: patent US20240109918A1, “HETEROCYCLIC COMPOUNDS AND USES THEREOF” (Kumquat Biosciences Inc., priority 2022, published 2024)

How the values were obtained:
KRASG12D = target: T1, KRASG12D (Homo sapiens, UniProt P01116, G12D); assay: Bio-Biochem-PPI-HTRF Ras-SOS1 interaction assay (KRAS G12D); format: biochemical; details: 5 nM
T1 construct: made in house; host or cells: E. coli BL21 (DE3)
Description: (§1) The assay buffer can contain −5 mM HEPES pH 7.4, ˜150 mM NaCl, ˜ 1 mM DTT, 0.05% BSA and 0.0025% (v/v) Igepal. A Ras working solution is prepared in an assay buffer containing typically a suitable amount of the protein construct (e.g., GST-tagged K-Ras mutant) and the FRET donor (e.g., antiGST-Eu(K) from Cisbio, France). A SOS1 working solution is prepared in an assay buffer containing suitable amount of the protein construct (e.g., His-hSOS1) and the FRET acceptor (e.g., anti-6His-XL665 from Cisbio, France). A suitable amount of the protein construct will depend on the range of activity or range of IC50 values being detected or under investigation. For detecting IC50 within a range of 500 nM, the protein constructs of the same range of molarity can be utilized. […] A fixed volume of DMSO with or without test compound is transferred into a 384-well plate. Ras working solution is added to all wells of the test plate. SOS1 working solution is added to all wells except for those that are subsequently filled the inhibitor control solution. Upon incubation for about 10 minutes or longer, the fluorescence is measured with a M1000Pro plate reader (Tecan) using HTRF detection (excitation 337 nm, emission 1:620 nm, emission 2: 665 nm). Compounds are tested in duplicates at different concentrations (for example, 10 μM, 2.5 μM, 0.63 μM, 0.16 μM, 0.04 μM, 0.01 μM test compound). The ratiometric data (i.e., emission 2 divided by emission 1) is used to calculate IC50 values against Ras using GraphPad Prism (GraphPad software). Following this general procedure, samples were tested with or without a subject compound disclosed herein including compounds exemplified in Table 1 to assess their abilities to inhibit a mutant K-Ras relative to another mutant K-Ras or wildtype K-Ras. Signaling output measured in terms of IC50 values can be obtained, a ratio of IC50 against one mutant relative to another mutant can be calculated. For instance, a selective reduction of K-Ras G12D signaling output can be evidenced by a ratio greater than one. In particular, a selective reduction of K-Ras G12D signaling relative to K-Ras WT signaling is evidenced as the ratio of IC50 (against K-Ras WT) to IC50 (against K-Ras G12D) is greater than 1.

KRASwt = target: T2, KRASwt (Homo sapiens, UniProt P01116); assay: Bio-Biochem-PPI-HTRF Ras-SOS1 interaction assay (KRAS wt); format: biochemical; details: 5 nM
T2 construct: made in house; host or cells: E. coli BL21 (DE3)
Description: as §1

T2 sequence (P01116 1-188 isoform P01116-2): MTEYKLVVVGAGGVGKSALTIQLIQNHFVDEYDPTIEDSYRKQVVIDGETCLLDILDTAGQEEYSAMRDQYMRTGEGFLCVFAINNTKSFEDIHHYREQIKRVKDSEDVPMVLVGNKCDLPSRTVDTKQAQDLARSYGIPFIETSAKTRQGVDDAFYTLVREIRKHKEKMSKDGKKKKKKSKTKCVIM
T1 sequence (P01116 1-188 isoform P01116-2 G12D): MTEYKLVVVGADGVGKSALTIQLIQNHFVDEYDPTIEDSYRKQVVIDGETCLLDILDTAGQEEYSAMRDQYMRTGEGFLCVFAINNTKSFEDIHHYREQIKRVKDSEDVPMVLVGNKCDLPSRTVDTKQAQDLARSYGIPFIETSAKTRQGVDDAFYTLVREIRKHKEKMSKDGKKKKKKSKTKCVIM

Row | Structure (SMILES) | IC50 (KRASG12D) [µM] | IC50 (KRASwt) [µM]
1 | C#Cc1c(F)ccc2cc(O)cc(-c3ccc4c(N5CCCC6(CNC6)C5)nc(OC[C@@]56CCCN5C[C@H](F)C6)nc4c3F)c12 [compound 161, 5-ethynyl-6-fluoro-4-(8-fluoro-2-(((2R,7aS)-2-fluorotetrahydro-1H-pyrrolizin-7a(5H)-yl)methoxy)-4-(2,6-diazaspiro[3.5]nonan-6-yl)quinazolin-7-yl)naphthalen-2-ol] | < 5 | < 5
2 | CC1(C)CN(c2nc(OC[C@@]34CCCN3C[C@H](F)C4)nc3c(F)c(-c4ccc(F)c5sc(N)c(C#N)c45)c(Cl)cc23)CC2(CNC2)O1 [compound 101, 2-amino-4-(6-chloro-4-(6,6-dimethyl-5-oxa-2,8-diazaspiro[3.5]nonan-8-yl)-8-fluoro-2-(((2R,7aS)-2-fluorotetrahydro-1H-pyrrolizin-7a(5H)-yl)methoxy)quinazolin-7-yl)-7-fluorobenzo[b]thiophene-3-carbonitrile] | < 5 | < 5
3 | N#Cc1c(N)sc2c(F)ccc(-c3c(Cl)cc4c(N5CCCCC6(CN(C(=O)N7CC(F)(F)C7)C6)C5)nc(OC[C@@]56CCCN5C[C@H](F)C6)nc4c3F)c12 [compound 307, 2-amino-4-(6-chloro-4-(2-(3,3-difluoroazetidine-1-carbonyl)-2,6-diazaspiro[3.6]decan-6-yl)-8-fluoro-2-(((2R,7aS)-2-fluorotetrahydro-1H-pyrrolizin-7a(5H)-yl)methoxy)quinazolin-7-yl)-7-fluorobenzo[b]thiophene-3-carbonitrile] | < 5 | –
4 | N#Cc1c(N)sc2c(F)ccc(-c3c(Cl)cc4c(N5CCCCC6(CN(C(=O)C7CC78CCOC8)C6)C5)nc(OC[C@@]56CCCN5C[C@H](F)C6)nc4c3F)c12 (stereo partly drawn) [compound 310, 4-(4-(2-(5-oxaspiro[2.4]heptane-1-carbonyl)-2,6-diazaspiro[3.6]decan-6-yl)-6-chloro-8-fluoro-2-(((2R,7aS)-2-fluorotetrahydro-1H-pyrrolizin-7a(5H)-yl)methoxy)quinazolin-7-yl)-2-amino-7-fluorobenzo [b]thiophene-3-carbonitrile] | < 5 | –
5 | N#Cc1c(N)sc2c(F)ccc(-c3c(Cl)cc4c(N5CCCCC6(CN(C(=O)CC7CC7(F)F)C6)C5)nc(OC[C@@]56CCCN5C[C@H](F)C6)nc4c3F)c12 (stereo partly drawn) [compound 331, 2-amino-4-(6-chloro-4-(2-(2-(2,2-difluorocyclopropyl)acetyl)-2,6-diazaspiro[3.6]decan-6-yl)-8-fluoro-2-(((2R,7aS)-2-fluorotetrahydro-1H-pyrrolizin-7a(5H)-yl)methoxy)quinazolin-7-yl)-7-fluorobenzo[b]thiophene-3-carbonitrile] | < 5 | –
6 | N#Cc1c(N)sc2c(F)ccc(-c3c(Cl)cc4c(N5CCCCC6(CN(C(=O)C78CC(C#N)(C7)C8)C6)C5)nc(OC[C@@]56CCCN5C[C@H](F)C6)nc4c3F)c12 [compound 321, 2-amino-4-(6-chloro-4-(2-(3-cyanobicyclo[1.1.1]pentane-1-carbonyl)-2,6-diazaspiro[3.6]decan-6-yl)-8-fluoro-2-(((2R,7aS)-2-fluorotetrahydro-1H-pyrrolizin-7a(5H)-yl)methoxy)quinazolin-7-yl)-7-fluorobenzo[b]thiophene-3-carbonitrile] | < 5 | –
7 | CN1CCC[C@H]1COc1nc(N2CCOC3(CNC3)C2)c2cc(Cl)c(-c3ccc(F)c4sc(N)c(C#N)c34)c(F)c2n1 (single isomer, unassigned; atropisomer 2) [compound 121] | < 5 | –
8 | N#Cc1c(N)sc2c(F)ccc(-c3c(Cl)cc4c(N5CCCCC6(CN(C(=O)NC7(C(F)(F)F)CC7)C6)C5)nc(OC[C@@]56CCCN5C[C@H](F)C6)nc4c3F)c12 [compound 315, 6-(7-(2-amino-3-cyano-7-fluorobenzo[b]thiophen-4-yl)-6-chloro-8-fluoro-2-(((2R,7aS)-2-fluorotetrahydro-1H-pyrrolizin-7a(5H)-yl)methoxy)quinazolin-4-yl)-N-(1-(trifluoromethyl)cyclopropyl)-2,6-diazaspiro[3.6]decane-2-carboxamide] | < 5 | –
9 | N#Cc1c(N)sc2c(F)ccc(-c3c(Cl)cc4c(N5CCCCC6(CN(C(=O)N7CC(C(F)F)C7)C6)C5)nc(OC[C@@]56CCCN5C[C@H](F)C6)nc4c3F)c12 [compound 262, 2-amino-4-(6-chloro-4-(2-(3-(difluoromethyl)azetidine-1-carbonyl)-2,6-diazaspiro[3.6]decan-6-yl)-8-fluoro-2-(((2R,7aS)-2-fluorotetrahydro-1H-pyrrolizin-7a(5H)-yl)methoxy)quinazolin-7-yl)-7-fluorobenzo[b]thiophene-3-carbonitrile] | < 5 | –

The next lines start with the values.

Row | IC50 (KRASG12D) [µM] | IC50 (KRASwt) [µM] | Structure (SMILES)
10 | < 5 | < 5 | N#Cc1c(N)sc2c(F)ccc(-c3c(Cl)cc4c(N5CCCCC6(CN(C(=O)C7CC7)C6)C5)nc(OC[C@@]56CCCN5C[C@H](F)C6)nc4c3F)c12 [compound 201, 2-amino-4-(6-chloro-4-(2-(cyclopropanecarbonyl)-2,6-diazaspiro[3.6]decan-6-yl)-8-fluoro-2-(((2R,7aS)-2-fluorotetrahydro-1H-pyrrolizin-7a(5H)-yl)methoxy)quinazolin-7-yl)-7-fluorobenzo[b]thiophene-3-carbonitrile]
11 | < 5 | – | N#Cc1c(N)sc2c(F)ccc(-c3c(Cl)cc4c(N5CCCCC6(CN(C(=O)C7CC(C#N)C7)C6)C5)nc(OC[C@@]56CCCN5C[C@H](F)C6)nc4c3F)c12 (stereo partly drawn) [compound 295, 2-amino-4-(6-chloro-4-(2-(3-cyanocyclobutane-1-carbonyl)-2,6-diazaspiro[3.6]decan-6-yl)-8-fluoro-2-(((2R,7aS)-2-fluorotetrahydro-1H-pyrrolizin-7a(5H)-yl)methoxy)quinazolin-7-yl)-7-fluorobenzo[b]thiophene-3-carbonitrile]
12 | < 5 | – | N#Cc1c(N)sc2c(F)ccc(-c3c(Cl)cc4c(N5CCCCC6(CN(C(=O)C7C8COCC87)C6)C5)nc(OC[C@@]56CCCN5C[C@H](F)C6)nc4c3F)c12 (stereo partly drawn) [compound 299, 4-(4-(2-(3-oxabicyclo[3.1.0]hexane-6-carbonyl)-2,6-diazaspiro [3.6]decan-6-yl)-6-chloro-8-fluoro-2-(((2R,7aS)-2-fluorotetrahydro-1H-pyrrolizin-7a(5H)-yl)methoxy)quinazolin-7-yl)-2-amino-7-fluorobenzo[b]thiophene-3-carbonitrile]
13 | < 5 | – | N#Cc1c(N)sc2c(F)ccc(-c3c(Cl)cc4c(N5CCCCC6(CN(C(=O)CC7COC7)C6)C5)nc(OC[C@@]56CCCN5C[C@H](F)C6)nc4c3F)c12 [compound 297, 2-amino-4-(6-chloro-8-fluoro-2-(((2R,7aS)-2-fluorotetrahydro-1H-pyrrolizin-7a(5H)-yl)methoxy)-4-(2-(2-(oxetan-3-yl)acetyl)-2,6-diazaspiro[3.6]decan-6-yl)quinazolin-7-yl)-7-fluorobenzo[b]thiophene-3-carbonitrile]
14 | < 5 | – | N#Cc1c(N)sc2c(F)ccc(-c3c(Cl)cc4c(N5CCCCC6(CN(C(=O)N7CC[C@H]7C#N)C6)C5)nc(OC[C@@]56CCCN5C[C@H](F)C6)nc4c3F)c12 [compound 264, (2S)-1-(6-(7-(2-amino-3-cyano-7-fluorobenzo[b]thiophen-4-yl)-6-chloro-8-fluoro-2-(((2R,7aS)-2-fluorotetrahydro-1H-pyrrolizin-7a(5H)-yl)methoxy)quinazolin-4-yl)-2,6-diazaspiro[3.6]decane-2-carbonyl)azetidine-2-carbonitrile]
15 | < 5 | – | N#Cc1c(N)sc2c(F)ccc(-c3c(Cl)cc4c(N5CCCCC6(CN(C(=O)C7CC7)C6)C5)nc(OC[C@@]56CCCN5C[C@H](F)C6)nc4c3F)c12 [compound 281, 2-amino-4-(6-chloro-4-(2-(cyclopropanecarbonyl)-2,6-diazaspiro[3.6]decan-6-yl)-8-fluoro-2-(((2R,7aS)-2-fluorotetrahydro-1H-pyrrolizin-7a(5H)-yl)methoxy)quinazolin-7-yl)-7-fluorobenzo[b]thiophene-3-carbonitrile]
16 | < 5 | – | N#Cc1c(N)sc2c(F)ccc(-c3c(Cl)cc4c(N5CCCCC6(CN(C(=O)C(F)Cl)C6)C5)nc(OC[C@@]56CCCN5C[C@H](F)C6)nc4c3F)c12 (stereo partly drawn) [compound 291, 2-amino-4-(6-chloro-4-(2-(2-chloro-2-fluoroacetyl)-2,6-diazaspiro[3.6]decan-6-yl)-8-fluoro-2-(((2R,7aS)-2-fluorotetrahydro-1H-pyrrolizin-7a(5H)-yl)methoxy)quinazolin-7-yl)-7-fluorobenzo[b]thiophene-3-carbonitrile]
